Laboratory results: paper PMC12144414 (iScience, 2025)
Peptide text beside a SMILES is read from it.

Assays:
[1] = Physiological parameters during ischemia/reperfusion; type: in vivo, mouse; details: 60 nmol GAI-17, during ischemia-reperfusion
[2] = Stability in mouse blood serum; type: in vitro ADME; details: prediction: endopeptidase cleavage upon peripheral injection; not tested
[3] = Regional cerebral blood flow; type: in vivo, mouse; details: 60 nmol GAI-17, during ischemia-reperfusion; n = 4
Human recombinant GAPDH = Human recombinant GAPDH (Homo sapiens, UniProt P04406); assay: GAI peptide inhibition of GAPDH aggregation; type: biochemical; details: read-out: Potency: Aggregation inhibitory activity (%); SD
Human recombinant GAPDH, sequence (P04406 whole entry): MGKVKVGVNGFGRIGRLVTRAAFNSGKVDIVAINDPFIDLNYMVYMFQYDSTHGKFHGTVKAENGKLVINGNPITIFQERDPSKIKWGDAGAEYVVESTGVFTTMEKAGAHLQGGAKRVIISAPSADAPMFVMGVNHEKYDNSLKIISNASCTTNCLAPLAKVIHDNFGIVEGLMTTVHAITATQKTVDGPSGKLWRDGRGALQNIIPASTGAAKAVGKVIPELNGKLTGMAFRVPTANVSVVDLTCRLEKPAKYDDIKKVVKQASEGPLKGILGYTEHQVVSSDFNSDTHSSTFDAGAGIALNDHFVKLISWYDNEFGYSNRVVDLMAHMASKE

[4] = Levels of pyruvate in the brain; type: in vivo, mouse; details: GAI-17 treatment; data not shown
mouse GAPDH = mouse GAPDH (Mus musculus, UniProt P16858); assay: In vitro GAPDH aggregation assay with C152A-GAPDH; type: biochemical; details: mouse GAPDH 0.3 mg/ml + C152A-GAPDH 0-0.75 mg/ml, 37°C 24 h, A405; n = 3
mouse GAPDH, sequence (P16858 whole entry): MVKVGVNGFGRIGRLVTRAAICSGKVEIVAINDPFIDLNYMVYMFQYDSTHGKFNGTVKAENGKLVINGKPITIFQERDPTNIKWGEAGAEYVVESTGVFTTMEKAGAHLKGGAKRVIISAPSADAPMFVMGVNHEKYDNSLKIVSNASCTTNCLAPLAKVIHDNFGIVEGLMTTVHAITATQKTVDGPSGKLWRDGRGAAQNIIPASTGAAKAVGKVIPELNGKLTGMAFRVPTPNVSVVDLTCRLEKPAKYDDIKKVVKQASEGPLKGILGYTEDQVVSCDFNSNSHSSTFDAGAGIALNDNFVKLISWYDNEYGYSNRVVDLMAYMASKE

[5] = test system: mouse model of AIS induced by transient MCAO; details: in vivo

Compound: C[C@@H](O)[C@H](NC(=O)[C@H](CS)NC(=O)[C@@H](N)CO)C(=O)O [GAI-17] (H-Ser-Cys-Thr-OH)
- Physiological parameters (MBP, HR, blood PaO2, PaCO2, pH, RT) [1]: no changes
- Stability in mouse blood serum [2]: predicted to be unstable
- Cerebral blood flow [3]: no changes
- inhibition (Human recombinant GAPDH): 97.2 ± 1.88%
- Levels of pyruvate in the brain [4]: did not affect

Compound: human GAPDH-C152A: His-tagged recombinant human GAPDH mutant with Cys-152 substituted to alanine, dominant-negative for aggregation
- Inhibitory effect on mouse GAPDH aggregation in vitro (mouse GAPDH): confirmed in vitro

Compound: C#CCN(C)[C@H](C)Cc1ccccc1 [deprenyl]
- Development of brain infarction caused by MCAO (infarct volume in whole brain) [5]: no significant effect
